A word on the melting point: it is the temperature of the solid-liquid transition.

We go through nine molecules from PMC9116245, “New 1,2,3-triazole linked ciprofloxacin-chalcones induce DNA damage by inhibiting human topoisomerase I& II and tubulin polymerization” (Journal of Enzyme Inhibition and Medicinal Chemistry, 2022).

The first data set concerns polymerised tubulin. The data set can be described thus: Western blot of polymerised tubulin in HCT116 cells. Format: cell-based, human. Conditions: HCT116, IC50 values of compounds. How it is done: The process of tubulin polymerisation in the cells is important for the completion of mitosis and is targeted for cancer treatment. It has been reported that the suppression of tubulin polymerisation will arrest the cells at the G2/M and it eventually leads to cell death. To test the tubulin-disruptive effect of the CP hybrids, HCT116 cells were analysed by immunocytochemistry. HCT116 cells were incubated for 36 h with IC50 of the CP hybrids (4a, 4b, 4e, 4i, and 4j), nocodazole (a well-known tubulin polymerisation inhibitor, as a positive control), DMSO or Paclitaxel (a well-known tubulin polymerisation inducer, as a negative control), and tubulin was visualised by immunofluorescence microscopy. An antibody for α-tubulin was used. […] Moreover, a Western blot was performed to verify the tubulin polymerisation inhibition ability of the synthesised compounds (Figure 8(B)). The level of polymerised tubulin was decreased in HCT116 cells treated with IC50 values of CP hybrids 4a, 4b, 4e, 4i, 4j, or nocodazole.
Western blotting analysis for HCT116 cells was performed according to the reported procedure in the literature[77–79] to determine the effects of CP hybrids; 4a, 4b, 4e, 4i, and 4j on the expression of polymerised tubulin, γH2AX, p-ATR, p-CHK1, and p-Cdc25C by using the appropriate antibody. See Supplementary Appendix A.
In general terms: A western blot detects proteins with antibodies after separation by electrophoresis.
Consider `O=C(/C=C/c1ccccc1)c1ccc(-n2cc(CN3CCN(c4cc5c(cc4F)c(=O)c(C(=O)O)cn5C4CC4)CC3)nn2)cc1` [Compound 4a, (E) 7-(4-((1–(4-Cinnamoylphenyl)-1H-1,2,3-triazol-4-yl)methyl)piperazin-1-yl)-1-cyclopropyl-6-fluoro-4-oxo-1,4-dihydroquinoline-3-carboxylic acid], for which the “level of polymerised tubulin, Western blot” value (shortened to “level of polymerised tubulin”) is on record as “decreased”.
As to `O=C(/C=C/c1cccc(Cl)c1)c1ccc(-n2cc(CN3CCN(c4cc5c(cc4F)c(=O)c(C(=O)O)cn5C4CC4)CC3)nn2)cc1` [Compound 4b, (E)-7-(4-((1–(4-(3-(3-chlorophenyl)acryloyl)phenyl)-1H-1,2,3-triazol-4-yl)methyl)piperazin-1-yl)-1-cyclopropyl-6-fluoro-4-oxo-1,4-dihydroquinoline-3-carboxylic acid], the “level of polymerised tubulin” value was “decreased”.
For `O=C(/C=C/c1ccc(F)cc1)c1ccc(-n2cc(CN3CCN(c4cc5c(cc4F)c(=O)c(C(=O)O)cn5C4CC4)CC3)nn2)cc1` [Compound 4e, (E)-1-cyclopropyl-6-fluoro-7–(4-((1–(4-(3-(4-fluorophenyl)acryloyl)phenyl)-1H-1,2,3-triazol-4-yl)methyl)piperazin-1-yl)-4-oxo-1,4-dihydroquinoline-3-carboxylic acid], the “level of polymerised tubulin” value is “decreased”.
Turning to `COc1ccc(/C=C/C(=O)c2ccc(-n3cc(CN4CCN(c5cc6c(cc5F)c(=O)c(C(=O)O)cn6C5CC5)CC4)nn3)cc2)cc1OC` [Compound 4i, (E)-1-cyclopropyl-7-(4-((1-(4-(3–(3,4-dimethoxyphenyl)acryloyl)phenyl)-1H-1,2,3-triazol-4-yl)methyl)piperazin-1-yl)-6-fluoro-4-oxo-1,4-dihydroquinoline-3-carboxylic acid], the “level of polymerised tubulin” value is recorded as “decreased”.

System in the next data set: not given
Experiment: not given
Details: not given
As for `O=C(/C=C/c1ccc(Cl)cc1)c1ccc(-n2cc(CN3CCN(c4cc5c(cc4F)c(=O)c(C(=O)O)cn5C4CC4)CC3)nn2)cc1` [Compound 4c, (E)-7-(4-((1-(4-(3-(4-chlorophenyl)acryloyl)phenyl)-1H-1,2,3-triazol-4-yl)methyl)piperazin-1-yl)-1-cyclopropyl-6-fluoro-4-oxo-1,4-dihydroquinoline-3-carboxylic acid], the melting point is 257 to 259 °C.
`O=C(/C=C/c1ccc(Br)cc1)c1ccc(-n2cc(CN3CCN(c4cc5c(cc4F)c(=O)c(C(=O)O)cn5C4CC4)CC3)nn2)cc1` [Compound 4d, (E)-7-(4-((1-(4-(3-(4-bromophenyl)acryloyl)phenyl)-1H-1,2,3-triazol-4-yl)methyl)piperazin-1-yl)-1-cyclopropyl-6-fluoro-4-oxo-1,4-dihydroquinoline-3-carboxylic acid] displayed a melting point of 247 to 249 °C.
As for `Cc1ccc(/C=C/C(=O)c2ccc(-n3cc(CN4CCN(c5cc6c(cc5F)c(=O)c(C(=O)O)cn6C5CC5)CC4)nn3)cc2)cc1` [Compound 4f, (E)-1-cyclopropyl-6-fluoro-4-oxo-7-(4-((1-(4-(3-(p-tolyl)acryloyl)phenyl)-1H-1,2,3-triazol-4-yl)methyl)piperazin-1-yl)-1,4-dihydroquinoline-3-carboxylic acid], the melting point lay in the range of 259 to 261 °C.
The molecule `COc1ccc(/C=C/C(=O)c2ccc(-n3cc(CN4CCN(c5cc6c(cc5F)c(=O)c(C(=O)O)cn6C5CC5)CC4)nn3)cc2)cc1` [Compound 4g, (E)-1-Cyclopropyl-6-fluoro-7-(4-((1-(4-(3-(4-methoxyphenyl)acryloyl)phenyl)-1H-1,2,3-triazol-4-yl)methyl)piperazin-1-yl)-4-oxo-1,4-dihydroquinoline-3-carboxylic acid] had a melting point of 254 to 257 °C.
Same read-out and setting: under `CN(C)c1ccc(/C=C/C(=O)c2ccc(-n3cc(CN4CCN(c5cc6c(cc5F)c(=O)c(C(=O)O)cn6C5CC5)CC4)nn3)cc2)cc1` [Compound 4h, (E)-1-cyclopropyl-7–(4-((1–(4-(3-(4-(dimethylamino)phenyl)acryloyl)phenyl)-1H-1,2,3-triazol-4-yl)methyl)piperazin-1-yl)-6-fluoro-4-oxo-1,4-dihydroquinoline-3-carboxylic acid] stands 177 to 179 °C.
